Here are results for two compounds from ChEMBL document CHEMBL5727585, “Carboxylic acid URAT1 inhibitor containing diarylmethane structure, preparation method and use thereof” (2020).

pIC50: −log10 of the molar value.

In general, pIC50 refers to the IC50 on a negative log10 scale, so that one unit is a factor of ten.

For this test, the target named is T1, Solute carrier family 22 member 12 (Homo sapiens, UniProt Q96S37).
T1 sequence (Q96S37 whole entry): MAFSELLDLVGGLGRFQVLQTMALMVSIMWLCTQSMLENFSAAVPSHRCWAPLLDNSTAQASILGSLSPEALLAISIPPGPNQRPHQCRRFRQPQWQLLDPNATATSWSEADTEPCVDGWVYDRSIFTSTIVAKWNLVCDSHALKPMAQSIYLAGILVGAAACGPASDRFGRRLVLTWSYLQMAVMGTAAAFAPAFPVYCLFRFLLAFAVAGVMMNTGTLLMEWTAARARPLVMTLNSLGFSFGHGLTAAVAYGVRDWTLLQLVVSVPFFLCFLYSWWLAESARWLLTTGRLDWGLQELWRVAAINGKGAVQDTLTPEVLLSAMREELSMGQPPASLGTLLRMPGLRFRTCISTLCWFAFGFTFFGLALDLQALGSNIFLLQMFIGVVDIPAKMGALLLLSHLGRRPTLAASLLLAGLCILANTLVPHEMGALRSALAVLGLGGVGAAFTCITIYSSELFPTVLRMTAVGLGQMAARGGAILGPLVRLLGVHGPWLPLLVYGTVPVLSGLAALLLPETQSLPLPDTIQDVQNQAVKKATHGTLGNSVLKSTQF
In words: IC50 for Inhibition of the Test Compounds on URAT1: After trypsin digestion, the expression cells (HEK293) stably expressing URAT1 gene and mock cells were all inoculated into lysine-coated 24-well culture plates, with the cell inoculation density being 1×10^5 cells/well, and cultured in incubator at 37° C., 5% CO2 and saturated humidity for 2 days. The culture fluid in the culture plate was removed, and the cultured cells were washed twice with DPBS and subjected to warm bath in DPBS buffer solution at 37° C. for 10 min, and then a solution (500 μL) containing radioactive labeled probe substrate ([8-14C] uric acid) and 10 μM test compound (or blank) was used to substitute for DPBS, with the concentration of [8-14C] uric acid being 30 μM and the radiation intensity per well being 0.867 μCi. After 2 min, the reaction was terminated with ice-bathed DPBS buffer solution and washing was carried out for three times. Then 0.1 mol/L NaOH (500 μL) was added into each well to lyse the cells, the lysate was extracted into a scintillation vial and a scintillation fluid (Aquasol-2, 3 mL) was added, and the intensity of radioactivity in the sample was measured using a Tri-Carb 2910TR liquid scintillation analyzer (PerkinElmer, Waltham, USA). […] […].

Consider `CC(C)(Sc1nnc(Br)n1-c1ccc(C2CC2)c2ccccc12)C(=O)O`, for which the pIC50 was 5.67.
Regarding `O=C(O)CCc1nnc(Br)n1-c1ccc(C2CC2)c2ccccc12`, the negative logarithm of the IC50 (pIC50) is 5.74.
